Measurements as given in US5296479A, “Treatment of psychosis using 1-cycloalkylpiperidines” (priority 1992, dated 1994).
Counter-ions that a name gives are not always drawn.

How the values were obtained:
[1] = test system: isolation-induced aggressive behavior; assay: Isolation-Induced Aggression in Mice; assay type: in vivo, Male Balb/c mice; details: oral, Table II discussion
Method: Male Balb/c mice (Charles River) were used. […] Isolated mice failing to consistently attack an intruder were eliminated from the colony. Drug testing was carried out by treating the isolated mice with test drugs or standards. Fifteen minutes after dosing with test drugs by the oral route, one isolated mouse was removed from its home cage and placed in the home cage of another isolate. Scoring was a yes or no response for each pair. A maximum of 3 minutes was allowed for an attack and the pair was separated immediately upon an attack. Selection of home cage and intruder mice was randomized for each test. Mice were treated and tested twice a week with at least a 2 day washout period between treatments.

catalepsy = assay: Induction of catalepsy; assay type: in vivo, Male CD rats; details: rats, oral; Table III discussion
Method: Male CD rats (Charles River) weighing 250-300 g were treated with test drugs and standards by the oral route and tested for the presence of catalepsy 30 minute, 60 minute, and 90 minute after treatment. To test for catalepsy, each rat is placed with its front paws over a 10 cm high horizontal bar. The intensity of catalepsy is measured by the length of time it takes the animal to move both forelegs to the table. A time of 20 seconds is considered maximal catalepsy.

[2] = test system: PCP-induced turning behavior; assay: PCP-induced turning behavior in rats; assay type: in vivo, Male Sprague-Dawley rats; details: p.o., Table III discussion
Method: Male Sprague-Dawley rats (CD/CR, Charles River), weighing 190-290 g, were used for surgery. In order to spare […] neurons, rats were injected with 25 mg/kg imipramine i.p. 30 minutes before surgery. The rats were anesthetized with a 1:1.2 ratio mixture of Xylazine:Ketamine given 0.1 mL/100 g body weight i.m. A Ringers-Wydaze (100:0.01) solution was given to prevent dehydration. Dopamine was depleted in the right striatum by injecting the neurotoxin 6-hydroxydopamine (6-OHDA) into the substantia nigra of the right cerebral hemisphere. Five mg of 6-OHDA was dissolved in 5 mL of a 0.04% ascorbic acid solution which had been deoxygenated with nitrogen. Five μL of the 6-OHDA solution was injected into the substantia nigra through a 26 gauge needle over a five minute period. […]
Rotation rate and direction were determined with Coulbourn Instruments Rotometry Monitors. Clockwise and counter clockwise rotations were recorded at 30 and 60 minute intervals. […]
The data were analyzed with an analysis of variance statistical test and individual comparisons of each dose of test drug to control were made with Dunnett's multiple range test. The ED50 was calculated with a Litchfield and Wilcoxon test using percent of control values.

Q: Which “inhibiting the isolation-induced aggressive behavior, in words” value [1] does the source give for Fc1ccc(OCC2CCN(CC3CC3)CC2)cc1 [Example 1, 1-(Cyclopropylmethyl)-4-(4-fluorophenoxymethyl)piperidine] here?
A: potent activities

Q: What does the source list for O=C(CC1CCN(CC2CC2)CC1)c1ccc(F)cc1 [Example 504, 1-(Cyclopropylmethyl)-4-2'-(4"-Fluorophenyl)-2-oxoethyl)-piperidine, hydrobromide salt]?
A: producing catalepsy, in words (catalepsy): does not produce catalepsy; inhibiting PCP-induced turning behavior, in words [2]: potent activity

Q: Which results are given for O=C(CCCN1CCC(O)(c2ccc(Cl)cc2)CC1)c1ccc(F)cc1 [Haloperidol]?
A: producing catalepsy, in words (catalepsy): very potent in producing catalepsy; inhibiting the isolation-induced aggressive behavior, in words [1]: potent activities; inhibiting PCP-induced turning behavior, in words [2]: potent activity
